{
  "source": "patent US20050181001A1",
  "about": "“Topical formulation for insect repellents” (priority 2003, published 2005)",
  "origin": "cited, not measured here",
  "key": {"mosquitoes [1]": {"system": "mosquitoes"}, "mosquitoes [2]": {"system": "mosquitoes", "conditions": "oral"}},
  "data": [
    {"smiles": "CC1=COC(=O)C2C(C)CCC12", "note": "(stereo not drawn) [nepetalactone]", "values": [
      {"measurement": "effectiveness at repelling mosquitoes relative to DEET", "setting": "mosquitoes [1]", "result": "more effective at repelling mosquitoes than DEET"}
    ]},
    {"smiles": "Cc1ncc(C[n+]2csc(CCO)c2C)c(N)n1", "note": "[thiamine]", "values": [
      {"measurement": "time before the odor fully saturates the skin and becomes effective", "setting": "mosquitoes [2]", "result": "up to 2 weeks"},
      {"measurement": "reduction of mosquito bites", "setting": "mosquitoes [2]; 25 to 50 mg three times per day", "result": "effective in reducing mosquito bites"}
    ]}
  ]
}
